Reference: patent publication US20240041042A1, “1-(PYRIDYL)-5-AZINYLPYRAZOLE DERIVATIVES, AND THEIR USE FOR CONTROL OF UNDESIRED PLANT GROWTH” (Bayer Aktiengesellschaft, priority 2020, published 2024)

Columns and labels:
Type in all cases: in vivo
Lolium rigidum (LOLRI) [1] = assay: Pre-emergence herbicidal action against LOLRI
Method in brief: (§1)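 Pre-emergence soil-surface spray, WP/EC formulation, 0.5% additive, 600 l/ha water, rates of 320 g/ha or lower. Greenhouse, ~3 wk. Visual score, % of untreated control (100% = plants dead, 0% = like control).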

Oryza sativa (ORYSA) = details: crop plant compatibility, 80 g/ha, effect in comparison to untreated controls
Method in brief: (§2)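 One-leaf-stage crops (2–3 wk post-sowing, sandy loam, greenhouse) sprayed on green parts; 0.5% additive, 600 l/ha water. Rated by eye ~3 wk later, % vs untreated; suffixes a/b/c mark different dosages.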

Zea mays (ZEAMX) = details: crop plant compatibility, 80 g/ha, effect vs untreated controls
Method in brief: as §2

[2] = system: Pharbitis purpurea (PHBPU); assay: Post-emergence herbicidal action against PHBPU
Method in brief: (§3)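 Doses of 320 g/ha or lower, suffixes a, b and c marking different dosages, were applied post-emergence at the one-leaf stage in 600 l/ha water with 0.5% additive. Damage was assessed visually after about 3 weeks in the greenhouse.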

[3] = system: Alopecurus myosuroides (ALOMY); assay: Post-emergence herbicidal action against ALOMY; details: visual rating about 3 weeks after treatment vs untreated controls (100% = plants have died, 0% = like control plants)
Method in brief: as §3

Avena fatua (AVEFA) [4] = assay: Post-emergence herbicidal action against AVEFA; details: visual rating about 3 weeks after treatment
Method in brief: as §3

[5] = system: Amaranthus retroflexus (AMARE); assay: Pre-emergence herbicidal action against AMARE; details: visual scoring after about 3 weeks vs untreated controls
Method in brief: as §1

[6] = system: Amaranthus retroflexus (AMARE); assay: Post-emergence herbicidal action against AMARE
Method in brief: as §3

[7] = system: Polygonum convolvulus (POLCO); assay: Post-emergence herbicidal action against POLCO
Method in brief: as §3

Setaria viridis (SETVI) [8] = assay: Post-emergence herbicidal action against SETVI
Method in brief: as §3

[9] = system: Echinochloa crus-galli (ECHCG); assay: Post-emergence herbicidal action against ECHCG
Method in brief: as §3

[10] = system: Alopecurus myosuroides (ALOMY); assay: Pre-emergence herbicidal action against ALOMY; details: scored visually after about 3 weeks, 100% = plants have died
Method in brief: as §1

[11] = system: Echinochloa crus-galli (ECHCG); assay: Pre-emergence herbicidal action against ECHCG
Method in brief: as §1

Setaria viridis (SETVI) [12] = assay: Pre-emergence herbicidal action against SETVI
Method in brief: as §1

[13] = system: Matricaria inodora (MATIN); assay: Pre-emergence herbicidal action against MATIN
Method in brief: as §1

[14] = system: Pharbitis purpurea (PHBPU); assay: Pre-emergence herbicidal action against PHBPU
Excerpt: Seeds of monocotyledonous and dicotyledonous weed plants and crop plants are placed in plastic or organic planting pots and covered with soil. The compounds of the invention, formulated in the form of wettable powders (WP) or as emulsion concentrates (EC), are then applied to the surface of the covering soil as aqueous suspension or emulsion with addition of 0.5% additive at a water application rate equivalent to 600 l/ha. After the treatment, the pots are placed in a greenhouse and kept under good growth conditions for the trial plants. After about 3 weeks, the effect of the preparations is scored visually in comparison with untreated controls as percentages. For example, 100% activity=the plants have died, 0% activity=like control plants.
Tables A1 to A13 below show the effects of selected compounds of the general formula (I) on various harmful plants and at an application rate corresponding to 320 g/ha or lower, which were obtained by the experimental procedure mentioned above. The appendices “a”, “b” and “c” give differentiation by dosage used with otherwise the same harmful plants tested.

Viola tricolor (VIOTR) [15] = assay: Post-emergence herbicidal action against VIOTR
Method in brief: as §3

Viola tricolor (VIOTR) [16] = assay: Pre-emergence herbicidal action against VIOTR
Method in brief: as §1

[17] = system: Matricaria inodora (MATIN); assay: Post-emergence herbicidal action against MATIN
Description: Seeds of monocotyledonous and dicotyledonous weeds and crop plants are placed in sandy loam in plastic or organic planting pots, covered with soil and cultivated in a greenhouse under controlled growth conditions. 2 to 3 weeks after sowing, the test plants are treated at the one-leaf stage. The compounds of the invention, formulated in the form of wettable powders (WP) or as emulsion concentrates (EC), are then sprayed onto the green parts of the plants as aqueous suspension or emulsion with addition of 0.5% additive at a water application rate of 600 l/ha (converted). After the test plants have been kept in the greenhouse under optimum growth conditions for about 3 weeks, the activity of the preparations is rated visually in comparison to untreated controls. For example, 100% activity=the plants have died, 0% activity=like control plants.
Tables B1 to B13 below show the effects of selected compounds of the general formula (I) according to Table 1 on various harmful plants and at an application rate corresponding to 320 g/ha or lower, which were obtained by the experimental procedure mentioned above. The appendices “a”, “b” and “c” give differentiation by dosage used with otherwise the same harmful plants tested.

[18] = system: Polygonum convolvulus (POLCO); assay: Pre-emergence herbicidal action against POLCO
Method in brief: as §1

[19] = system: Abutilon theophrasti (ABUTH); assay: Post-emergence herbicidal action against ABUTH; details: 320 g/ha, visual rating about 3 weeks after treatment vs untreated controls (100% = plants have died, 0% = like control plants)
Method in brief: as §3

Lolium rigidum (LOLRI) [20] = assay: Post-emergence herbicidal action against LOLRI; details: dosage 320 g/ha
Method in brief: as §3

[21] = system: Verconica persica (VERPE); assay: Post-emergence herbicidal action against VERPE
Method in brief: as §3

[22] = system: Verconica persica (VERPE); assay: Pre-emergence herbicidal action against VERPE; details: dosage 320 g/ha
Method in brief: as §1

Avena fatua (AVEFA) [23] = assay: Pre-emergence herbicidal action against AVEFA; details: visual scoring after about 3 weeks vs untreated controls
Method in brief: as §1

[24] = 80 g/ha, visual rating about 3 weeks after treatment vs untreated controls (100% = plants have died, 0% = like control plants)
[25] = 320 g/ha, visual rating about 3 weeks after treatment

| Structure (SMILES) | Pre-emergence action against LOLRI in % (Lolium rigidum (LOLRI) [1]; dosage 320 g/ha) | Post-emergence action against ORYSA in % (Oryza sativa (ORYSA)) | Post-emergence action against ZEAMX in % (Zea mays (ZEAMX)) | Post-emergence action against PHBPU in % ([2]; dosage 80 g/ha) | Post-emergence action against PHBPU in % ([2]; dosage 320 g/ha) | Post-emergence action against ALOMY in % ([3]; 320 g/ha) | Post-emergence action against AVEFA in % (Avena fatua (AVEFA) [4]; 80 g/ha) | Post-emergence action against AVEFA in % (Avena fatua (AVEFA) [4]; 320 g/ha) | Pre-emergence action against AMARE in % ([5]; 320 g/ha) | Post-emergence action against AMARE in % [6, 24] | Post-emergence action against AMARE in % [6, 25] | Post-emergence action against SETVI in % (Setaria viridis (SETVI) [8]; dosage 320 g/ha) | Post-emergence action against ECHCG in % ([9]; dosage 320 g/ha) | Pre-emergence action against ALOMY ([10]; 320 g/ha) | Pre-emergence action against ECHCG in % ([11]; dosage 320 g/ha) | Pre-emergence action against SETVI in % (Setaria viridis (SETVI) [12]; dosage 320 g/ha) | Pre-emergence action against MATIN in % ([13]; dosage 320 g/ha) | Pre-emergence action against VIOTR in % (Viola tricolor (VIOTR) [16]; 320 g/ha, Viola tricolor) | Pre-emergence action against VIOTR in % (Viola tricolor (VIOTR) [16]; dosage 80 g/ha) | Post-emergence action against MATIN in % ([17]; dosage 320 g/ha) | also measured |
| --- | --- | --- | --- | --- | --- | --- | --- | --- | --- | --- | --- | --- | --- | --- | --- | --- | --- | --- | --- | --- | --- |
| O=C(O)CSc1nn(-c2ccccn2)c(-c2cncc(F)c2)c1C1CC1 [Example I-153] | 80% | 0% | 10% | 80% | 90% | 80% | 80% | 90% | 100% | 90% | 90% | 80% | 90% | 90% | 100% | 90% | 80% | 100% | 90% | 80% | Post-emergence action against POLCO in % ([7]; dosage 320 g/ha): 80%; Post-emergence action against ECHCG in % ([9]; dosage 80 g/ha): 80%; Pre-emergence action against ECHCG in % ([11]; dosage 80 g/ha): 80%; Pre-emergence action against PHBPU in % ([14]; dosage 320 g/ha): 80%; Post-emergence action against VIOTR in % (Viola tricolor (VIOTR) [15]; 320 g/ha): 80% |
| COC(=O)COc1nn(-c2nc(F)ccc2F)c(-c2cncc(F)c2)c1Br [Example I-210] | 80% | 10% |  | 90% | 100% | 90% |  |  | 100% |  | 80% | 80% | 80% | 90% | 100% | 100% | 90% | 100% | 90% | 80% | Pre-emergence action against POLCO in % ([18]; dosage 80 g/ha): 90%; Pre-emergence action against POLCO in % ([18]; dosage 320 g/ha): 100%; Post-emergence action against ABUTH in % [19]: 80%; Pre-emergence action against AMARE in % ([5]; 80 g/ha): 80%; Post-emergence action against LOLRI in % (Lolium rigidum (LOLRI) [20]): 80%; Post-emergence action against SETVI in % (Setaria viridis (SETVI) [8]; dosage 80 g/ha): 80%; Post-emergence action against ECHCG in % ([9]; dosage 80 g/ha): 80%; Pre-emergence action against ALOMY ([10]; 80 g/ha): 80%; Post-emergence action against VERPE in % ([21]; 320 g/ha, VERPE): 90%; Post-emergence action against VERPE in % ([21]; dosage 80 g/ha): 90%; Pre-emergence action against ECHCG in % ([11]; dosage 80 g/ha): 90%; Pre-emergence action against SETVI in % (Setaria viridis (SETVI) [12]; dosage 80 g/ha): 90%; Pre-emergence action against MATIN in % ([13]; dosage 80 g/ha): 90%; Pre-emergence action against PHBPU in % ([14]; dosage 80 g/ha): 90%; Pre-emergence action against PHBPU in % ([14]; dosage 320 g/ha): 90%; Pre-emergence action against VERPE in % [22]: 100%; Post-emergence action against MATIN in % ([17]; dosage 80 g/ha): 80% |
| CC(Oc1nn(-c2ccccn2)c(-c2ccc(F)nc2)c1C(F)(F)F)C(=O)O (stereo not shown) [Example I-94] | 100% | 20% | 20% |  | 80% | 100% | 80% | 100% | 100% | 90% | 90% | 90% | 90% | 100% | 80% | 100% | 100% | 100% | 100% | 80% | Pre-emergence action against LOLRI in % (Lolium rigidum (LOLRI) [1]; dosage 80 g/ha): 100%; Pre-emergence action against POLCO in % ([18]; dosage 80 g/ha): 90%; Pre-emergence action against POLCO in % ([18]; dosage 320 g/ha): 90%; Post-emergence action against ALOMY in % ([3]; 80 g/ha): 80%; Post-emergence action against ABUTH in % [19]: 80%; Pre-emergence action against AMARE in % ([5]; 80 g/ha): 80%; Post-emergence action against POLCO in % ([7]; dosage 80 g/ha): 80%; Post-emergence action against POLCO in % ([7]; dosage 320 g/ha): 90%; Post-emergence action against LOLRI in % (Lolium rigidum (LOLRI) [20]): 100%; Post-emergence action against SETVI in % (Setaria viridis (SETVI) [8]; dosage 80 g/ha): 80%; Pre-emergence action against ALOMY ([10]; 80 g/ha): 80%; Post-emergence action against VERPE in % ([21]; 320 g/ha, VERPE): 90%; Pre-emergence action against AVEFA in % (Avena fatua (AVEFA) [23]; 80 g/ha): 80%; Pre-emergence action against AVEFA in % (Avena fatua (AVEFA) [23]; 320 g/ha): 90%; Post-emergence action against VIOTR in % (Viola tricolor (VIOTR) [15]; 80 g/ha): 90%; Post-emergence action against VIOTR in % (Viola tricolor (VIOTR) [15]; 320 g/ha): 90%; Pre-emergence action against VERPE in % [22]: 90% |
